In the assay the target is hMRGX2 (CHO-K1 cells overexpressing MRGX2) (Homo sapiens (Human), UniProt Q96LB1). The assay is described as follows: In vitro inhibition (EC50) of intracellular calcium flux, FLIPR Tetra, substance P stimulation. The conditions noted are these: stimulated with MRGX2 ligand substance P, FLIPR Calcium 5, read-out: hMRGX2 Cellular Potency (pEC50) (converted). Type of assay: cell-based. The procedure: In Vitro Inhibition (EC50) of Intracellular Calcium Flux
hMRGX2 (CHO-K1 cells overexpressing MRGX2), sequence (Q96LB1 whole entry): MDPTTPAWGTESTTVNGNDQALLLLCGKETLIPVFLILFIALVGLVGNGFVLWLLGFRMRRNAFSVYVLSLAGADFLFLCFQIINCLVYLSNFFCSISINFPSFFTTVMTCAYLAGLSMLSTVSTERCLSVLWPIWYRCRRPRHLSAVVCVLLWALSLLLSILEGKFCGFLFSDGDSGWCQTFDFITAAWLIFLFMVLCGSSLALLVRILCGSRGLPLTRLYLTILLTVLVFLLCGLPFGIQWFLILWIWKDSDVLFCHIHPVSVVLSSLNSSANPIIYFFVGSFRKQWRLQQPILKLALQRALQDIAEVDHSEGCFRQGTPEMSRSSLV
The release of intracellular calcium following stimulation of cells with substance P in the presence or absence of inhibitor compounds was measured using the FLIPR Tetra® system. CHO-K1 cells overexpressing MRGX2 were seeded into 384-well plates (Black clear bottom, TC-treated, Fisher #07-200-655) and incubated overnight to allow for cell attachment. Media was removed, and 1× loading buffer (FLIPR® Calcium 5 assay solution, Molecular Devices, per manufacturer specifications) was added. The plates were incubated at 37° C. for 30 minutes. Test compounds were added to cells (11-point dose response, 10 µM maximum concentration) and fluorescence measured (120 seconds, in real time) using the FLIPR Tetra® system. Immediately following, MRGX2 ligand substance P was added at a final concentration of 1 µM and fluorescence measured (120 seconds, in real time) using the FLIPR Tetra® system. The data for the examples are reported as pEC50.
In general terms: Calcium flux is commonly read through the fluorescence of an indicator in the cells.
With `COC(C)CNC1=NS(=O)(=O)c2cccc(-c3cccc(F)c3F)c2N1` (racemic) [Example 23, 5-(2,3-difluorophenyl)-3-((2-methoxypropyl)amino)-4H-benzo[e][1,2,4]thiadiazine 1,1-dioxide], the EC50 was 41.1 nM.
In the case of `COC(C)CCNC1=NS(=O)(=O)c2cccc(-c3cccc(F)c3Cl)c2N1` (racemic) [Example 153, 5-(2-chloro-3-fluorophenyl)-3-((3-methoxybutyl)amino)-4H-benzo[e][1,2,4]thiadiazine 1,1-dioxide], the EC50 is 27.3 nM.
For `CO[C@H](C)CNC1=NS(=O)(=O)c2cccc(-c3cccc(F)c3F)c2N1` (single isomer, unassigned) [Example 24], the EC50 is 64.1 nM.
With `CO[C@H](C)CNC1=NS(=O)(=O)c2cccc(-c3cc(F)cc(F)c3)c2N1` (single isomer, unassigned) [Example 85], the EC50 is 249 nM.
The value for `CO[C@@H](C)CNC1=NS(=O)(=O)c2cccc(-c3cc(F)cc(F)c3)c2N1` (single isomer, unassigned) [Example 86] was above 50100 nM; that for `CO[C@@H](C)CNC1=NS(=O)(=O)c2cccc(-c3cc(F)cc(F)c3F)c2N1` (single isomer, unassigned) [Example 128] was 24.9 nM; that for `CO[C@H](C)CNC1=NS(=O)(=O)c2cccc(-c3cc(F)cc(F)c3F)c2N1` (single isomer, unassigned) [Example 129] was 2690 nM.
With `CO[C@H](C)CCNC1=NS(=O)(=O)c2cccc(-c3cccc(F)c3Cl)c2N1` (single isomer, unassigned) [Example 154], the EC50 was 32.2 nM.
Turning to `O=S1(=O)N=C(NCc2nccs2)Nc2c(-c3cccc(F)c3Cl)cc(F)cc21` [Example 5, 5-(2-chloro-3-fluorophenyl)-7-fluoro-3-((thiazol-2-ylmethyl)amino)-4H-benzo[e][1,2,4]thiadiazine 1,1-dioxide], the EC50 is 20 nM.
Turning to `CC(NC1=NS(=O)(=O)c2cc(F)cc(-c3cccc(F)c3Cl)c2N1)c1nccs1` (stereo not drawn) [Example 8, 5-(2-chloro-3-fluorophenyl)-7-fluoro-3-((1-(thiazol-2-yl)ethyl)amino)-4H-benzo[e][1,2,4]thiadiazine 1,1-dioxide], the EC50 was 110 nM.
The value for `CC(NC1=NS(=O)(=O)c2cc(F)cc(-c3cccc(F)c3Cl)c2N1)c1cscn1` (stereo not drawn) [Example 9, 5-(2-chloro-3-fluorophenyl)-7-fluoro-3-((1-(thiazol-4-yl)ethyl)amino)-4H-benzo[e][1,2,4]thiadiazine 1,1-dioxide] was 146 nM.
As to `O=S1(=O)N=C(NCC(F)F)Nc2c(-c3cccc(F)c3Cl)cc(F)cc21` [Example 10, 5-(2-chloro-3-fluorophenyl)-3-((2,2-difluoroethyl)amino)-7-fluoro-4H-benzo[e][1,2,4]thiadiazine 1,1-dioxide], the EC50 was 39.3 nM.
On to `O=S1(=O)N=C(NCCF)Nc2c(-c3cccc(F)c3Cl)cc(F)cc21` [Example 11, 5-(2-chloro-3-fluorophenyl)-7-fluoro-3-((2-fluoroethyl)amino)-4H-benzo[e][1,2,4]thiadiazine 1,1-dioxide], for which the EC50 is 127 nM.
Take `CNC1=NS(=O)(=O)c2cc(F)cc(-c3ccccc3Cl)c2N1` [Example 13, 5-(2-chlorophenyl)-7-fluoro-3-(methylamino)-4H-benzo[e][1,2,4]thiadiazine 1,1-dioxide]: the EC50 was 35.5 nM.
The value for `COCCNC1=NS(=O)(=O)c2cc(F)cc(-c3ccccc3Cl)c2N1` [Example 14, 5-(2-chlorophenyl)-7-fluoro-3-((2-methoxyethyl)amino)-4H-benzo[e][1,2,4]thiadiazine 1,1-dioxide] was 40.6 nM.
For `CCNC1=NS(=O)(=O)c2cc(F)cc(-c3ccccc3Cl)c2N1` [Example 15, 5-(2-chlorophenyl)-3-(ethylamino)-7-fluoro-4H-benzo[e][1,2,4]thiadiazine 1,1-dioxide], the EC50 is 62.4 nM.
Consider `O=S1(=O)N=C(NCC2CCC2)Nc2c(-c3cccc(F)c3Cl)cccc21` [Example 17, 5-(2-chloro-3-fluorophenyl)-3-((cyclobutylmethyl)amino)-4H-benzo[e][1,2,4]thiadiazine 1,1-dioxide], for which the EC50 was 20.7 nM.
The same measure for `COc1cccc(CNC2=NS(=O)(=O)c3cccc(-c4cccc(F)c4Cl)c3N2)n1` [Example 18, 5-(2-chloro-3-fluorophenyl)-3-(((6-methoxypyridin-2-yl)methyl)amino)-4H-benzo[e][1,2,4]thiadiazine 1,1-dioxide]: 21.3 nM; for `COc1cccc(CNC2=NS(=O)(=O)c3cccc(-c4cccc(F)c4F)c3N2)n1` [Example 19, 5-(2,3-difluorophenyl)-3-(((6-methoxypyridin-2-yl)methyl)amino)-4H-benzo[e][1,2,4]thiadiazine 1,1-dioxide]: 23.4 nM; for `Cn1cccc(CNC2=NS(=O)(=O)c3cccc(-c4cccc(F)c4F)c3N2)c1=O` [Example 20, 3-(((5-(2,3-difluorophenyl)-1,1-dioxido-4H-benzo[e][1,2,4]thiadiazin-3-yl)amino)methyl)-1-methylpyridin-2(1H)-one]: 857 nM.
Turning to `O=S1(=O)N=C(NCCF)Nc2c(-c3cccc(F)c3F)cccc21` [Example 21, 5-(2,3-difluorophenyl)-3-((2-fluoroethyl)amino)-4H-benzo[e][1,2,4]thiadiazine 1,1-dioxide], the EC50 is 738 nM.
In the case of `O=S1(=O)N=C(NCC2CCC2)Nc2c(-c3cccc(F)c3F)cccc21` [Example 22, 3-((cyclobutylmethyl)amino)-5-(2,3-difluorophenyl)-4H-benzo[e][1,2,4]thiadiazine 1,1-dioxide], the EC50 is 80.5 nM.
The same measure for `CO[C@@H](C)CNC1=NS(=O)(=O)c2cccc(-c3cccc(F)c3F)c2N1` [Example 25, (S)-5-(2,3-difluorophenyl)-3-((2-methoxypropyl)amino)-4H-benzo[e][1,2,4]thiadiazine 1,1-dioxide]: 2750 nM.
`CNC1=NS(=O)(=O)c2cccc(-c3cccc(F)c3F)c2N1` [Example 26, 5-(2,3-difluorophenyl)-3-(methylamino)-4H-benzo[e][1,2,4]thiadiazine 1,1-dioxide]: the EC50 was 389 nM.
On to `O=S1(=O)N=C(NCc2ncco2)Nc2c(-c3cccc(F)c3F)cccc21` [Example 27, 5-(2,3-difluorophenyl)-3-((oxazol-2-ylmethyl)amino)-4H-benzo[e][1,2,4]thiadiazine 1,1-dioxide], for which the EC50 was 344 nM.
With `O=S1(=O)N=C(NCC2CC2)Nc2c(-c3cccc(F)c3Cl)cccc21` [Example 29, 5-(2-chloro-3-fluorophenyl)-3-((cyclopropylmethyl)amino)-4H-benzo[e][1,2,4]thiadiazine 1,1-dioxide], the EC50 was 26.8 nM.
The same measure for `Cc1coc(CNC2=NS(=O)(=O)c3cccc(-c4cccc(F)c4Cl)c3N2)n1` [Example 30, 5-(2-chloro-3-fluorophenyl)-3-(((4-methyloxazol-2-yl)methyl)amino)-4H-benzo[e][1,2,4]thiadiazine 1,1-dioxide]: 28.6 nM; for `O=S1(=O)N=C(NCc2ccccn2)Nc2c(-c3cccc(F)c3Cl)cccc21` [Example 31, 5-(2-chloro-3-fluorophenyl)-3-((pyridin-2-ylmethyl)amino)-4H-benzo[e][1,2,4]thiadiazine 1,1-dioxide]: 29.9 nM; for `COCCNC1=NS(=O)(=O)c2cccc(-c3cc(F)cc(F)c3Cl)c2N1` [Example 32, 5-(2-chloro-3,5-difluorophenyl)-3-((2-methoxyethyl)amino)-4H-benzo[e][1,2,4]thiadiazine 1,1-dioxide]: 35.7 nM.
The value for `COC(C)CNC1=NS(=O)(=O)c2cccc(-c3cccc(F)c3Cl)c2N1` (stereo not drawn) [Example 33, 5-(2-chloro-3-fluorophenyl)-3-((2-methoxypropyl)amino)-4H-benzo[e][1,2,4]thiadiazine 1,1-dioxide] was 38.2 nM; that for `COCCNC1=NS(=O)(=O)c2cccc(-c3ccnc(F)c3Cl)c2N1` [Example 36, 5-(3-chloro-2-fluoropyridin-4-yl)-3-((2-methoxyethyl)amino)-4H-benzo[e][1,2,4]thiadiazine 1,1-dioxide] was 50.4 nM.
As to `COCCNC1=NS(=O)(=O)c2cccc(-c3cccc(F)c3F)c2N1` [Example 37, 5-(2,3-difluorophenyl)-3-((2-methoxyethyl)amino)-4H-benzo[e][1,2,4]thiadiazine 1,1-dioxide], the EC50 is 394 nM.
On to `Cc1cnc(CNC2=NS(=O)(=O)c3cccc(-c4cccc(F)c4Cl)c3N2)o1` [Example 38, 5-(2-chloro-3-fluorophenyl)-3-(((5-methyloxazol-2-yl)methyl)amino)-4H-benzo[e][1,2,4]thiadiazine 1,1-dioxide], for which the EC50 is 51.9 nM.
Regarding `COC(C)CNC1=NS(=O)(=O)c2cccc(-c3ccccc3Cl)c2N1` (stereo not drawn) [Example 40, 5-(2-chlorophenyl)-3-((2-methoxypropyl)amino)-4H-benzo[e][1,2,4]thiadiazine 1,1-dioxide], the EC50 is 76.2 nM.
As for `O=S1(=O)N=C(NCc2ccccn2)Nc2c(-c3ccccc3Cl)cccc21` [Example 41, 5-(2-chlorophenyl)-3-((pyridin-2-ylmethyl)amino)-4H-benzo[e][1,2,4]thiadiazine 1,1-dioxide], the EC50 is 26.4 nM.
In the case of `CCNC1=NS(=O)(=O)c2cccc(-c3ccccc3Cl)c2N1` [Example 42, 5-(2-chlorophenyl)-3-(ethylamino)-4H-benzo[e][1,2,4]thiadiazine 1,1-dioxide], the EC50 is 77.1 nM.

The values above are taken from patent US12247015B2, “3-amino-4H-benzo[e][1,2,4]thiadiazine 1,1-dioxide derivatives as inhibitors of MRGX2” (Solent Therapeutics, LLC, priority 2019, dated 2025).
